Patent publication US10723699B2 (Hyundai Pharm Co., Ltd., priority 2015, dated 2020)

Assays:
[1] = system: diet-induced obesity (DIO) C57BL/6J mice; test: OGTT in diet-induced obesity (DIO) mice at the end of 4-week administration; format: in vivo; settings: glucose 4 g/kg 30 minutes later
Method: To simultaneously evaluate both the weight-loss and hypoglycemic effects of the cyclohexene derivative according to the present invention, experiments were carried out, as follows.
Specifically, male C57BL/6J mice (approximately 4 weeks old) in a diet-induced obesity model were fed with a high-fat diet (Lab. Diet Co.) for approximately 12 weeks to induce high-fat diet-induced obesity (DIO). The mice undergoing the high-fat diet were randomly selected, and divided into groups (n=8) for respective administrations.
The weights of the DIO mice were measured twice a week during a period of administration of 4 weeks to record a change in the weights. At the end of the 4-week period of administration, a hypoglycemic effect was evaluated using an oral glucose tolerance test (OGTT), as follows.
Specifically, the compound (+)-(4-(4-((1-(5-ethylpyrimidin-2-yl)piperidin-4-yl)methoxy)phenyl)cyclohex-3-enyl)((R)-2-(hydroxymethyl)pyrrolidin-1-yl)methanone or (−)-(4-(4-((1-(5-ethylpyrimidin-2-yl)piperidin-4-yl)methoxy)phenyl)cyclohex-3-enyl)((R)-2-(hydroxymethyl)pyrrolidin-1-yl)methanone prepared in Example 290 or 291 was orally administered at a dose of 10 to 20 mg/kg. […] A blood glucose level was determined using an Accu-Chek Active Strip (Roche diagnostic Co.). […]

[2] = target: T1, CYP1A2 (Homo sapiens, UniProt P05177); test: CYP inhibition assay (BD GENTEST kit); format: in vitro ADME; settings: 10 μM
T1 construct: purchased BD GENTEST 459100
T1 sequence (P05177 1-516): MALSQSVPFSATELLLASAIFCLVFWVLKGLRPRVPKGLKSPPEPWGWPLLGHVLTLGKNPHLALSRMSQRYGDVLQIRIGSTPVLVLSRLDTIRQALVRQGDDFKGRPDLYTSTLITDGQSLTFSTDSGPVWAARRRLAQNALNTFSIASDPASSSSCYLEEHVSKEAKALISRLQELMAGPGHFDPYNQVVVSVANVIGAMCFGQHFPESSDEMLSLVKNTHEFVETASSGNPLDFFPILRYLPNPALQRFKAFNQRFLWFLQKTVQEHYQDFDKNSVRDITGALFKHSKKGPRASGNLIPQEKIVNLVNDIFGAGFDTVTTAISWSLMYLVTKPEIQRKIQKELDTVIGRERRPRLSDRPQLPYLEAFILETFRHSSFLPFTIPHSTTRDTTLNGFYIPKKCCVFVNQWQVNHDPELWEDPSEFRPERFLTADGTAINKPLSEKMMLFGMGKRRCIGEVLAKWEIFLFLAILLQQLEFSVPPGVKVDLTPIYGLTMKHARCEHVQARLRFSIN
From the text: CYP enzymes play a major role in the metabolism of drugs. Depending on the inhibition activity of the CYP enzymes, the dose of the drugs and toxicity due to the co-administration of other drugs can be predicted. Therefore, we have measured the inhibitory activity for CYP3A4, CYP2C9, CYP1A2, CYP2D6 and CYP2C19 enzymes present in the body using the compounds of the present invention. Invitrogen P2862 kit was used for CYP2D6 inhibition assay, and BD GENTEST (459100, 459300, 459400, 459500) kits were used for CYP1A2, CYP2C9, CYP2C19 and CYP3A4 inhibition assay. In case of Invitrogen kit, the test materials were diluted in distilled water into 2.5× of the final test concentration.
In case of BD GENTEST kit, the test materials were diluted in acetonitrile into 50× of the final test concentration. NADPH-cofactor mixture containing cofactor, G6PDH and control protein was prepared in distilled water as per manufacturer's instruction. 4 μl of 50× test materials and 96 μl of NADPH-cofactor mixture were mixed in U-bottom 96-well plate, and the resulting mixture were pre-incubated at 37° C. for 10 minutes. Predetermined concentrations of enzyme/substrate mixture were prepared in distilled water using buffer (0.5M potassium phosphate, pH 7.4) and each of CYP450 enzyme/substrate mixture provided in the kit for the types of CYP450. To the pre-incubated plate, 100 μl of enzyme/substrate mixture was added, and then incubated at 37° C. for 15 minutes (CYP1A2), 30 minutes (CYP3A4 and CYP2C19) or 1.5 hours (CYP2C9). After completion of the reaction, the reactants were transferred to the white plates, and fluorescent values were measured using a micro-plate reader (Excitation and absorption wavelengths of CYP1A2 and CYP2C19 were 410 nm and 460 nm, respectively; and excitation and absorption wavelengths of CYP2C9 and CYP3A4 were 409 nm and 530 nm, respectively).
The measured values were converted into the inhibition percent of the test materials as compared to the value of the untreated control, and the results were summarized in Table 5.

In the case of `CCc1cnc(N2CCC(COc3ccc(C4=CCC(C(=O)N5CCC[C@@H]5CO)CC4)cc3)CC2)nc1` (single isomer, unassigned; (-)) [Example 291], the “% AUC (hypoglycemic level)” value ([1]; 10 mg/kg oral) is reported as 16.2 % AUC, the “% AUC (hypoglycemic level)” value ([1]; 20 mg/kg oral) is reported as 17.6 % AUC and the “CYP inhibition (% at 10 μM) 1A2” value [2] is reported as 0%.
